Measurements from US20080113956A1, “Substituted Porphyrins” (priority 1997, published 2008).

B1: catalase: enzymatic antioxidant (protein, UniProt P04040 2-527, looked up)
Catalase: ADSRDPASDQMQHWKEQRAAQKADVLTTGAGNPVGDKLNVITVGPRGPLLVQDVVFTDEMAHFDRERIPERVVHAKGAGAFGYFEVTHDITKYSKAKVFEHIGKKTPIAVRFSTVAGESGSADTVRDPRGFAVKFYTEDGNWDLVGNNTPIFFIRDPILFPSFIHSQKRNPQTHLKDPDMVWDFWSLRPESLHQVSFLFSDRGIPDGHRHMNGYGSHTFKLVNANGEAVYCKFHYKTDQGIKNLSVEDAARLSQEDPDYGIRDLFNAIATGKYPSWTFYIQVMTFNQAETFPFNPFDLTKVWPHKDYPLIPVGKLVLNRNPVNYFAEVEQIAFDPSNMPPGIEASPDKMLQGRLFAYPDTHRHRLGPNYLHIPVNCPYRARVANYQRDGPMCMQDNQGGAPNYYPNSFGAPEQQPSALEHSIQYSGEVRRFNTANDDNVTQVRAFYVNVLNEEQRKRLCENIAGHLKDAQIFIQKKAVKNFTEVHPDYGSHIQALLDKYNAEKPKNAIHTFVQSGSHLAAREKANL

Key:
rat brain homogenates = assay: Iron/ascorbate mediated lipid peroxidation of rat brain homogenates (TBARS); format: biochemical; conditions: for IC50: rat brain homogenate, 30 minutes incubation with iron and ascorbate, TBARS
Method: Frozen adult Sprague-Dawley rat brains (Pel-Freez, Rogers, Ark.) were homogenized with a polytron (Turrax T25, Germany) in 5 volumes of ice cold 50 mM potassium phosphate at pH 7.4. Homogenate protein concentration was determined with the Coomassie Plus protein assay (Pierce, Rockford, Ill.) using bovine serum albumin as a standard. The homogenate volume was adjusted with buffer to give a final protein concentration of 10 mg/ml and frozen as aliquots at […].
Rat brain homogenates (2 mg protein) were incubated with varying concentrations of antioxidant at 37° C. for 15 minutes. Oxidation of the rat brain homogenate was initiated by the addition of 0.1 ml of a freshly prepared anaerobic stock solution containing iron(II) chloride (0.25 mM) and ascorbate (1 mM) as previously reported (Braughler et al, J. Biol. Chem. 262:10438 (1987)). Samples (final volume 1 ml) were placed in a shaking water bath at 37° C. for 30 minutes. The reactions were stopped by the addition of 0.1 ml of a stock butylated hydroxytoluene (60 mM) solution in ethanol.
The concentration of thiobarbituric acid reactive species (TBARS) in rat brain homogenates was used as a index of lipid peroxidation (Bernhem et al, J. Biol. Chem. 174:257 (1948); Witz et al, J. Free Rad. Biol. Med. 2:33 (1986); Kikugawa et al, Anal. Biochem. 202:249 (1992); Jentzsch et al, Free Rad. Biol. Med. 20P251 (1996)). Malondialdehyde standards were obtained by adding 8.2 μl of 1,1,3,3-tetramethoxypropane in 10 ml of 0.01 M HCl and mixing for 10 minutes at room temperature. This stock was further diluted in water to give standards that ranged from 0.25 to 25 μM. Samples or standards (200 μl) were acidified with 200 μl of 0.2 M phosphoric acid in 1.5 ml locking microfuge tubes. The color reaction was initiated by the addition of 25 μl of a 0.11M thiobarbituric acid solution and samples were placed in a 90° C. heating block for 45 minutes. TBARS were extracted with 0.5 ml of n-butanol by vortexing samples for 3 minute and chilling on ice for 1 minute. The samples were then centrifuged at 12,000×g for 3 minutes, 150 μl aliquots of the n-butanol phase were placed in each well of a 96-well plate and read at 535 nm in a Thermomax platereader (Molecular Devices, Sunnyvale, Calif.) at 25° C. Sample absorbencies were converted to MDA equivalencies (μM) by extrapolation from the MDA standard curve. None of the antioxidants at concentrations employed in these studies affected the reaction of MDA standards with thiobarbituric acid and reactions without TBA were used as subtraction blanks.
Data were presented as their means ±SE. The inhibitory concentration of antioxidants that decreased the degree of lipid peroxidation by 50% (IC50) and respective 95% confidence intervals (CI) were determined by fitting a sigmoidal curve with variable slope to the data (GraphPad Prizm, San Diego, Calif.).

[1] = SOD activity in U/mg (reduction of cytochrome c or photoreduction of NBT); format: biochemical; conditions: unit = amount that inhibits one half the reduction of cytochrome c or photoreduction of NBT
[2] = Electrochemistry: metal-centered redox potential; format: physicochemical; conditions: metal centered, vs NHE, pH 7.8 if not otherwise specified
Method: Electrochemistry. The electrochemical characterization was performed as described previously on a Voltammetric Analyzer Model 600 (CH instrument) using a glassy carbon electrode (Ag/AgCl reference and Pt auxiliary electrodes), at 0.5 mM porphyrin, pH 7.8 (0.05 M phosphate buffer), 0.1 M NaCl. The potentials were standardized against potassium ferricyanide/potassium ferrocyanide couple (Batinic-Haberle et al, Arch. Biochem. Biophys. 343:225 (1997); Kolthof et al, J. Phys. Chem. 39:945 (1974)).
Electrochemistry. The metal-centered redox behavior of all metalloporphyrin products was reversible. The half-wave potentials (E^O1/2) were calculated as the average of the cathodic and anodic peaks and are given in mV vs NHE (Table 5). The average shift per chlorine is +55 mV (Table 5), which is in agreement with the values previously reported for H2TPP derivatives (between −50 and +70 mV) (Sen et al, Chem. Soc. Faraday Trans. 93:4281 (1997); Autret et al. J. Chem. Soc. Dalton Trans. 2793 (1996); Hariprasad et al, J. Chem. Soc. Dalton Trans. 3429 (1996); Tagliatesta et al, Inorg. Chem. 35:5570 (1996); Ghosh, J. Am. Chem. Soc. 117:4691 (1995); Takeuchi et al, J. Am. Chem. Soc. 116:9730 (1994); Binstead et al, Inorg. Chem. 30:1259 (1991); Giraudeau et al, J. Am. Chem. Soc. 101:3857 (1979)). This shift appears to be higher (˜+65 mV) between 0 and 1, and between 2 and 3 chlorines (Table 5). […] The manganese redox state of MnCl4TE-2-PyP^5 (E^O1/2=+448 mV) and MnOBTMPyP^4+ (E^O1.2=+480 mV) is 3+ and 2+, respectively. This difference may be explained by their difference in terms of redox potential (˜30 mV) but also by structural considerations, for instance an increased distortion of the porphyrin ring in the case of MnOBTMPyP^4+. (Batinic-Haberle et al, Arch. Biochem. Biophys. 343:225 (1997); Ochsenbein et al, Angew. Chem. Int. Ed. Engl. 33:348 (1994)).

[3] = vs NHE; literature comparators; cited from earlier work
[4] = cited from earlier work; for kcat of comparison compounds: literature comparators

Molecule	IC50 (rat brain homogenates) [µM]	SOD [1]	Redox Potential (E1/2) [2]	E°1/2 half-wave potential of comparison compounds [3]	kcat of comparison compounds [4]	kcat per active site ([4]; per active site)	inhibition of iron/ascorbate-initiated lipid peroxidation (rat brain homogenates; up to concentrations of 1 mg/ml)
C[n+]1ccccc1-c1c2nc(c(-c3cccc[n+]3C)c3ccc([nH]3)c(-c3cccc[n+]3C)c3nc(c(-c4cccc[n+]4C)c4ccc1[nH]4)C=C3)C=C2.[Zn+2] [ZnTM-2-PyP]	591	trace	–	–	–	–	–
CuZnSOD: dimeric copper- and zinc-containing superoxide dismutase enzyme; bovine in Example VIII	15	5,100 U/mg	+0.35 V	+260 mV	200 10^7 M^−1 s^−1	10^9 M^−1s^−1	–
C[n+]1ccc(-c2c3nc(c(-c4cc[n+](C)cc4)c4ccc([nH]4)c(-c4cc[n+](C)cc4)c4nc(c(-c5cc[n+](C)cc5)c5ccc2[nH]5)C=C4)C=C3)cc1.[Zn+2] [ZnTM-4-PyP]	241	trace	–	–	–	–	–
Cc1c(C)c2c(c(C)c1O)CCC(C)(C(=O)O)O2 (centres unmarked) [Trolox]	204	–	–	–	–	–	–
MnTBAP	29	179 U/mg	−0.19 V	–	–	–	–
O=C(O)c1ccc(-c2c3nc(c(-c4ccc(C(=O)O)cc4)c4ccc([nH]4)c(-c4ccc(C(=O)O)cc4)c4nc(c(-c5ccc(C(=O)O)cc5)c5ccc2[nH]5)C=C4)C=C3)cc1.[Fe+3] [FeTBAP, Ferric 5,10,15,20-tetrakis(4-benzoic acid) porphyrin]	212	24 U/mg	+0.01 V	–	–	–	–
C[n+]1ccc(-c2c3nc(c(-c4cc[n+](C)cc4)c4[n-]c(c(Br)c4Br)c(-c4cc[n+](C)cc4)c4nc(c(-c5cc[n+](C)cc5)c5[n-]c2c(Br)c5Br)C(Br)=C4Br)C(Br)=C3Br)cc1.[Mn+3] [MnOBTM-4-PyP, Manganese β-octabromo-meso-tetrakis-(N-methylpyridinium-4-yl)porphyrin]	1.3	18,460 U/mg	+0.48 V	+480 mV	22 10^7 M^−1 s^−1	–	–
B1	–	–	–	–	–	–	did not inhibit
